# Source: article PMC9653453, “Development of truncated elastin-like peptide analogues with improved temperature-response and self-assembling properties” (Scientific Reports, 2022)
# Entries after “also recorded” stand apart in the source; their conditions may differ. Ends that are not written are not given here.
# Assays:
# [1] = RP-UPLC retention time, used as measure of peptide hydrophobicity; assay type: physicochemical; settings: RP-UPLC-MS; chromatographic
# Procedure: Peptide synthesis was carried out using the conventional solid-phase peptide synthesis procedure (see supplementary information). The synthesized peptides were purified using RP-HPLC. The purity and molecular weight of each peptide were confirmed using RP-UPLC-MS (Table S1 and Fig. S1). […]
# Retention times of each peptide were determined by RP-UPLC-MS.
# [2] = Colorimetric (xylenol orange) determination of Cd^2+ removal by peptide coacervation; settings: peptide 1.0 mg/mL; for Concentration of metal ion in the supernatant: Cd^2+ (0.236 mM CdCl2), Tris-HCl (50.0 mM Tris, 599 mM NaCl, pH 8.0), at least three measurements; for Concentration of metal ion in the supernatant / Removal efficiency: mean ± SE; for Removal efficiency: Cd^2+, versus control without peptide
# Procedure: (§1) Colorimetric analyses of cadmium ions (Cd^2+) were carried out to evaluate the number of metal ions absorbed into the coacervation phase of the peptides by using a spectral photometer (JASCO V-660)[45]. […] The peptide solutions were incubated at 4 ℃ for 3, 6, or 12 h and then at 60 ℃ for 1.5 h to separate into the lower coacervation phase from the upper equilibrium solution phase. After incubation, the peptide solution was immediately centrifuged at room temperature for 2 min (6,200 rpm) to remove aggregates. An aliquot of 333 µL of supernatant of the equilibrium solution phase was added to 600 µL of acetate buffer solution (pH5.4) including 67 μM of XO and incubated for 10 min. Subsequently, the concentrations of Cd^2+ or Zn^2+ were determined by measuring the absorbance at 575 nm or 550 nm, respectively, which corresponds to the absorbance of the metal-XO complex. The amount of metal ions absorbed in the peptide solution was determined by the calibration line, which was prepared in the same manner by using a series of standard CdCl2 or ZnCl2 aqueous solutions of known concentrations. The homogeneity of variances between the concentration of each metal ion in the supernatant and the control solution was confirmed using the F test. The statistical significance of the difference between the concentration of each metal ion in the supernatant and the control solution was determined using the Student's t-test. Results were considered statistically significant at P values of ≤ 0.01.
# [3] = Turbidity measurement of AADAAC-(FPGV)4 in Tris-HCl buffer pH 8.4 with or without CdCl2 / NaCl; assay type: physicochemical; settings: for Tt: turbidity at 400 nm, mean ± SE, at least three measurements
# Procedure: This hexapeptide sequence strongly and selectively binds to cadmium above pH 6.0, whereas this peptide releases metal ions below pH 4.0[51]. […] To assess the self-assembly property, turbidity measurements of AADAAC-(FPGV)4 were carried out under the same conditions as described above (Table 2 and Fig. 8). First, AADAAC-(FPGV)4 was dissolved to a concentration of 10 mg/mL in Tris–HCl buffer (pH 8.4) instead of phosphate buffer (pH 7.4), considering its use as a metal scavenging agent under basic conditions. Under these conditions, the Tt of AADAAC-(FPGV)4 was 41.6 ± 1.0 ℃ at a peptide concentration of 10 mg/mL. Since Tt tended to increase with the proportion of hydrophilic residues in the peptide, the self-assembling ability of AADAAC-(FPGV)4 was weakened compared with that of (FPGV)4, owing to the presence of hydrophilic Asp and Cys residues in the AADAAC sequence conjugated to (FPGV)4[34]. On the other hand, in the presence of Cd^2+, AADAAC-(FPGV)4 was insoluble in the solution. Therefore, the binding of the AADAAC sequence to Cd^2+ ions was thought to contribute to the enhanced self-assembly of AADAAC-(FPGV)4 in the presence of the metal ions. […] This characteristic of AADAAC-(FPGV)4 was similar to that of AADAAC-(FPGVG)4, which we previously reported. Subsequently, to verify whether this peptide can be used as a metal recovery agent at a lower peptide concentration, turbidity measurement using a low-concentration peptide solution (0.5 mg/mL, 0.236 mM) was performed. […] Thus, turbidity was measured in Tris–HCl buffer (50.0 mM Tris, 0.236 mM CdCl2, pH 8.4) containing 0.9% NaCl (154 mM, equivalent to saline), because it has been reported that salts such as NaCl increase the self-association and decrease the Tt of ELPs[52]. […] Owing to this drastic change in water solubility in the presence and absence of cadmium ions, AADAAC-(FPGV)4 was considered to be useful as a Cd^2+-selective metal-scavenging agent.
# Turbidity measurements were performed in accordance with previous reports. The temperature-dependent self-assembling properties of the ELP analogues were evaluated using a JASCO V-660 spectral photometer (JASCO Co., Tokyo, Japan). Peptide sample solutions of different concentrations (2.0, 5.0, 10, 20, 30, or 50 mg/mL) were prepared by dissolving each peptide (except for AADAAC-(FPGV)n) in phosphate buffer (27.4 mM Na2HPO4, 17.8 mM NaH2PO4, pH 7.4). […] Turbidity was measured at 400 nm with increasing or decreasing temperature at a rate of 0.5 ℃/min from 5 ℃. The concentration of each sample solution was measured at least three times. […]
# [4] = Colorimetric (xylenol orange) determination of Zn^2+ removal by peptide coacervation; settings: peptide 1.0 mg/mL, mean ± SE
# Procedure: as §1, with “The homogeneity of variances between the concentration of each metal ion in the supernatant and the control solution was confirmed using the F test.” left out, “Results were considered statistically significant at P values of ≤ 0.01.” left out
# [5] = Turbidity measurement (phase transition temperature Tt, coacervation) in phosphate buffer pH 7.4; assay type: physicochemical; settings: turbidity at 400 nm, heating 0.5 ℃/min from 5 ℃, mean ± SE, at least three measurements
# Procedure: Turbidity measurements were performed in accordance with previous reports. The temperature-dependent self-assembling properties of the ELP analogues were evaluated using a JASCO V-660 spectral photometer (JASCO Co., Tokyo, Japan). Peptide sample solutions of different concentrations (2.0, 5.0, 10, 20, 30, or 50 mg/mL) were prepared by dissolving each peptide (except for AADAAC-(FPGV)n) in phosphate buffer (27.4 mM Na2HPO4, 17.8 mM NaH2PO4, pH 7.4). AADAAC-(FPGV)4 was dissolved in Tris–HCl buffer solution (50.0 mM Tris, at pH 8.4 or 50.0 mM Tris, 154 mM NaCl, at pH 8.4) to prepare sample solutions of a concentration of 0.5 or 10 mg/mL in the absence or presence of the equimolar amount of CdCl2. Turbidity was measured at 400 nm with increasing or decreasing temperature at a rate of 0.5 ℃/min from 5 ℃. The concentration of each sample solution was measured at least three times. The self-assembling property was described by the phase transition temperature (Tt), which is the temperature at which the turbidity of the solution reaches half the maximum value.
# [6] = Time-lapse thioflavin T (ThT) fluorescence assay; assay type: physicochemical; settings: peptide 10 mg/mL; phosphate buffer pH 7.4; 15, 30 and 45 ℃; excitation 446 nm, emission 483 nm
# Procedure: Thiofalvin T (ThT) fluorescence measurements were performed for (FPGVG)5, (FPGVG)4, (FPGV)5, and (FPGV)4. Each peptide was dissolved in phosphate buffer (27.4 mM Na2HPO4, 17.8 mM NaH2PO4, pH 7.4) to different concentrations (1.0 mg/mL for (FPGV)5, 5.0 mg/mL for (FPGVG)5 and (FPGV)4, and 10 mg/mL for (FPGVG)4, respectively). Then, 1 mM of ThT aqueous solution was added to each sample at a final ThT concentration of 25 μM) followed by incubation for 1 h at 4 °C. The fluorescence intensity was measured using a FP-8500 spectrofluorometer (JASCO Co.). The excitation was set at 446 nm and the emission was recorded at 483 nm. The fluorescence intensities of samples were monitored at 15 °C for 30 min. Then, the sample temperature was raised to 30 °C and the measurements were performed for another 30 min. The same measurement was also carried out at 45 °C for (FPGV)4.
# [7] = Dynamic light scattering (DLS) size distribution of coacervates; assay type: physicochemical; settings: 10 to 50 ℃ in 10 ℃ steps; phosphate buffer pH 7.4; peptide concentrations as in Fig. 3 (2.0-50 mg/mL)
# Procedure: The distribution of the particle size in the truncated ELP analogue solution was analyzed via DLS using Zetasizernano ZS (Malvern Instruments Ltd., Worcestershire, U.K.) in a measurement cell ZEN0112 (Malvern Instruments Ltd.)[33]. Peptide samples of different concentrations (2.0, 10, 20, 30, or 50 mg/mL) were prepared by dissolving each peptide in phosphate buffer (27.4 mM Na2HPO4, 17.8 mM NaH2PO4, pH 7.4) and filtered using the Millex-LG filter (pore size 0.2 µm, Merck Millipore) before measurement. DLS analysis was performed by increasing the temperature at 10 ℃ intervals from 10 to 50 ℃. Measurement duration was selected automatically. Parameter dataset “protein” (dataset: refractive index, 1.450; absorption, 0.001) was used as the material parameter, and parameter dataset “water” (dataset: refractive index, 1.330; viscosity, 0.8872) was chosen as the dispersant parameter. Attenuation was selected automatically. Each concentration was measured at least three times.
# [8] = Optical microscopy of peptide aggregates with image analysis of particle size; assay type: physicochemical; settings: peptide 10 mg/mL, phosphate buffer pH 7.4
# Procedure: The morphology of the coacervates of (FPGVG)4, (FPGV)4, and (FPG)4 was observed using optical microscopy. Light field observation was performed using a Leica DM IL LED microscope (Leica Microsystems CMS, Wetzlar, Germany) equipped with HI PLAN 40 × (Leica Microsystems CMS) and HC PLAN 10 × (Leica Microsystems CMS) objectives. Each peptide was dissolved in phosphate buffer (27.4 mM Na2HPO4, 17.8 mM NaH2PO4, at pH 7.4) to a concentration of 10 mg/mL and applied on a glass slide. Sample imaging was performed below and above the Tt of each peptide using a Thermo Plate TP-CHSQM (Tokai Hit Co., Ltd., Shizuoka, Japan). Sample images above Tt were taken 3 min after the sample reached the target temperature. The details of the image analysis is shown in the Supplementary Information file.
# Size distribution of coacervates of ELP analogues formed above the Tt was analyzed using optical microscopy images of each peptide. Image analysis was performed using Image J/Fiji (NIH, USA), an open-source image analysis software.^2 Spatial calibration was carried out using […] in original images. The images of peptide coacervates were converted to a binary image via the menu command Image > Type > 8-bit. Using "analyze particle" command, the Feret diameters of the particles within the image were measured.
Substance,UPLC retention time (measure of hydrophobicity) [1],"Concentration of metal ion in the supernatant ([2]; incubation 3 h at 4 ℃ then 60 ℃ 1.5 h, xylenol orange absorbance 575 nm)",Concentration of metal ion in the supernatant ([2]; incubation 6 h at 4 ℃ then 60 ℃ 1.5 h),Concentration of metal ion in the supernatant ([2]; incubation 12 h at 4 ℃ then 60 ℃ 1.5 h),Removal efficiency ([2]; incubation 6 h),Removal efficiency ([2]; incubation 12 h),Cd^2+ concentration remaining in the supernatant ([2]; incubation for 12 h at 4 ℃ before heating),"Tt ([3]; peptide 0.5 mg/mL (0.236 mM), Tris-HCl buffer (50.0 mM Tris, pH 8.4) with 154 mM NaCl and 0.236 mM CdCl2 (equimolar))","Coacervation (in words) ([3]; peptide 0.5 mg/mL (0.236 mM), Tris-HCl buffer (50.0 mM Tris, pH 8.4) with 154 mM NaCl, absence of Cd^2+)","Tt / solubility in the presence of Cd^2+ ([3]; peptide 10 mg/mL (4.71 mM), Tris-HCl buffer (50.0 mM Tris, pH 8.4) with 4.71 mM CdCl2)","Tt ([3]; peptide 10 mg/mL (4.71 mM), Tris-HCl buffer (50.0 mM Tris, pH 8.4), no additive, 0.5 ℃/min)","Concentration of metal ion in the supernatant ([4]; Zn^2+ (0.236 mM ZnCl2), incubation 12 h at 4 ℃ then 60 ℃ 1.5 h, Tris-HCl (50.0 mM Tris, 599 mM NaCl, pH 8.0), xylenol orange absorbance 550 nm, at least three measurements)","Removal efficiency ([4]; Zn^2+, incubation 12 h, versus control without peptide)","Tt, phase transition temperature ([5]; peptide 5.0 mg/mL, phosphate buffer pH 7.4, half-maximal turbidity)","Tt, phase transition temperature ([5]; peptide 10 mg/mL, phosphate buffer (27.4 mM Na2HPO4, 17.8 mM NaH2PO4, pH 7.4), Tt = temperature at half-maximal turbidity)",ThT fluorescent intensity versus temperature (in words) [6],Temperature-dependent particle size by DLS (in words) [7],"Morphology of aggregates (optical microscopy, in words) [8]","Particle size of coacervates (optical microscopy image analysis, Feret diameter) ([8]; above Tt ((FPGVG)4 40 °C, (FPGV)4 25 °C), ImageJ/Fiji)"
"AADAACFPGVFPGVFPGVFPGV-NH2 [AADAAC-(FPGV)4, H-AADAAC-(FPGV)4-NH2]",2.496 min,6.8 ± 0.11 ppm,2.5 ± 0.49 ppm,1.3 ± 0.046 ppm,90.9 ± 0.018%,95.1 ± 0.002%,4.9%,13.8 ± 0.1 °C,did not show coacervation,insoluble; also recorded: Not dissolved,41.6 ± 1.0 °C,4.4 ± 0.008 ppm,75.3 ± 0.001%,,,,,,
"FPGVGFPGVGFPGVGFPGVG-NH2 [(FPGVG)4, reference compound]",2.251 min,,,,,,,,,,,,,47.5 ± 0.3 °C,33.8 ± 0.3 °C,significantly elevated at 45 °C,"formed sub-micron particles below Tt, which grew into micrometer-sized particles above Tt",spherical aggregates,about 1 µm
